Source: US20190091189A1, “ADMINISTRATION OF EXOGENOUS KETONE TO LOWER BLOOD GLUCOSE” (priority 2016, published 2019)

Experiments:
[1] = Chronic feeding (83 days) of ketone supplements, blood βHB and glucose; assay type: in vivo, Sprague-Dawley rats; details: SPD rats, after 83 days of chronic feeding (~25 g/kg b.w./day), compared to control
Source text: A total of 48 male SPD rats were fed for 83 days with either standard rodent chow (2018 Teklad Global 18% Protein Rodent Diet (#2018), Harlan) standard diet (SD)/control; n=9) or SD+ketone supplementation. Four treatment animal groups included low-dose KE (˜10 g/kg b.w./day, Low-dose ketone ester (LKE); n=10), high-dose KE (˜25 g/kg b.w./day, high dose ketone ester (HKE); n=10), KS (˜25 g/kg b.w./day, KS; n=9) and KSMCT (˜25 g/kg b.w./day, KSMCT; n=10).
(§1) In the chronic feeding study, blood βHB and glucose levels were measured 24 h before the 1st day of ketone treatments (baseline levels) and at 13th week. In the 7 day oral gavage studies, blood βHB and glucose levels were measured 24 h before the 1st day of ketone treatments (baseline levels; SPD and WAG/Rij rats), 24 h after the first gavage and 60 min after gavage on the 7th day (SPD and WAG/Rij rats). Whole blood samples (10 μL) were taken from the saphenous vein for analysis of blood glucose (mg/dl) and βHB (mmol/1) levels with the commercially available glucose and ketone (βHB) monitoring system Precision Xtra™ (Abbott Laboratories, Abbott Park, Ill., USA).

[2] = Sub-chronic oral gavage (7 days), blood βHB and glucose, without exercise; assay type: in vivo, Sprague-Dawley rats; details: SPD rats, 5 g/kg b.w./day gavage
Source text: (§2) In order to familiarize the animals to the intragastric gavage method, water was gavaged for 5 days before ketone supplementation. Following the adaptation period to the intragastric gavage method, 39 male SPD rats were fed with standard diet, and gavaged daily with 5 g/kg b.w./day water (SD/control; n=11) or ketone supplements KE (n=9), KS (n=9), KSMCT (n=10) sub-chronically for 7 days. In addition, following the adaptation period to the intragastric gavage method, WAG/Rij male rats (n=32) were fed with SD and gavaged sub-chronically with about 2.5 g/kg b.w./day water (SD/control; n=8), KE (n=8), KS (n=8) or KSMCT (n=8) for 7 days.
as §1

[3] = as above; assay type: in vivo; details: WAG/Rij rats; for blood βHB: about 2.5 g/kg b.w./day, after 7 days of gavage, compared to baseline, 24 h and control
Source text: as §2, §1

[4] = Multiple treatment (7 days) and rotarod exercise, blood βHB and glucose; assay type: in vivo, Sprague-Dawley rats; details: exercised SPD rats
Source text: Four month old Sprague-Dawley rats were first acclimated to oral gavage with administration of tap water once daily for a period of 5 days. The rats were then divided into 5 groups, and fed either a standard diet (SD), a ketogenic diet (KD), or a standard diet supplemented with a once daily oral gavage of a ketogenic compound as outlined in Table 1. The ketogenic compound was selected from 1,3-butanediol-acetoacetate diester (SD+KE), β-hydroxybutyrate mineral salt (SD+KS), or β-hydroxybutyrate mineral salt and a medium chain triglyceride (SD+KSMCT). The above ketogenic compounds were provided at a dose of 5 g/kg of body weight.
Each group of animals was maintained on the respective dietary conditions for 7 days. Whole blood samples (10 μL) were collected from the saphenous vein of rats. The levels of blood glucose (mg/dL) and β-hydroxybutyrate (mmol/L) were measured with the commercially available glucose monitoring system PRECISION XTRA® (Abbott Laboratories, Abbott Park, Ill., USA). It is noted that the PRECISION XTRA® only measures β-hydroxybutyrate levels, therefore total blood ketone levels may be higher than measured.
Rats were exercised on a Rota Rod Rotamex 5 (Columbus Instruments). Animals were exercised on the rotarod for 5 consecutive days before treatment began in order to acclimate to the equipment and the task. The rats were placed on rods of the accelerating rotarod and the time the animals remained on the rotarod was measured. The rotarod was set to accelerate to 40 rpm in 180 seconds. Each training and testing consisted of 3 trials, with a 2 minute rest period between each trial. Animals were placed on the rotarod and timed until they fell from the rotating rod. The animals were evaluated on the rotarod exercise test after the 5 days training period but prior to the beginning of dietary treatment (baseline), 24 hours after treatment, and after 7 days of dietary treatment.
The animals were evaluated for blood levels of glucose and ketone bodies β-hydroxybutyrate), prior to the beginning of dietary treatment, 24 hours after treatment, and after 7 days of dietary treatment.

[5] = 10-week feeding of G1D mice, blood ketone and glucose; assay type: in vivo; details: fed for 10 weeks, 10% KE or 20% KS in standard diet, or ketogenic diet
Experimental: GLUT1 deficiency syndrome (G1D) is characterized by impaired glucose transport in the brain and diagnosed with CSF glucose value of <2.2 mmol/L. There is no cure for G1D, but the ketogenic diet (KD) is often effective for the drug-resistant seizures and impairment of motor function associated with the disease. The effect of ketogenic compounds on blood glucose levels was assessed in glucose transporter type 1 (G1D)-deficient mice. A group of 48 G1D mice, aged 2-5 months old, were fed for 10 weeks with either a standard rodent diet (SD), a ketogenic diet (KD), a standard diet supplemented with 10% ketone ester (SD+KE) or a standard diet supplemented with 20% ketone mineral salt (SD+KS).

[6] = 5 g/kg once daily gavage (or ketogenic diet), 24 hours after treatment
[7] = 5 g/kg once daily gavage (or ketogenic diet), after 24 hours, compared to baseline
[8] = 5 g/kg once daily gavage (or ketogenic diet), after 7 days
[9] = 5 g/kg once daily gavage, after 7 days

Q: What does the source list for `CC(=O)CC(=O)OCCC(C)OC(=O)CC(C)=O` (centres unmarked) [KE, 1,3-butanediol-acetoacetate diester]?
A: blood βHB levels [1]: significantly elevated; blood βHB levels ([2]; 24 h after a single gavage, compared to control): elevated; blood glucose levels ([2]; at 24 h, compared to control): lower; glucose levels ([3]; about 2.5 g/kg b.w./day gavage, after 24 h, compared to baseline and control group): lower; blood βHB [3]: elevated; blood βHB after exercise [4, 6]: elevated levels; blood glucose levels after exercise [4, 7]: reduce blood glucose levels; blood βHB after exercise [4, 8]: trend towards baseline levels; blood glucose levels after exercise [4, 9]: trended towards baseline; blood glucose level [5]: quickly dropped and remained the lowest; blood ketone level [5]: slow and slight elevation

Q: Which “blood βHB levels” value [1] does the source give for “Na^+/K^+-β-hydroxybutyrate mineral salt [KS]” here?
A: Its value is “significantly elevated”.

Q: And the “blood βHB” value ([2]; 7 days, compared to control group)?
A: The value was “elevated”.

Q: What about the “blood βHB” value [3] of the same compound?
A: Its value is “elevated”.

Q: What about the “blood βHB after exercise” value [4, 6] of the same compound?
A: Its value is “no change”.

Q: And the “blood glucose levels after exercise” value [4, 7]?
A: The value was “increase”.

Q: What about the “blood βHB after exercise” value [4, 8] of the same compound?
A: The value was “significant increase”.

Q: And the “blood glucose levels after exercise” value [4, 9]?
A: Its value is “decline towards baseline”.

Q: And the blood glucose level [5]?
A: The blood glucose level was “early decrease”.

Q: What about the blood ketone level [5] of the same compound?
A: Its blood ketone level is “significant and rapid elevation”.
